Source: the NIST ThermoML archive (doi:10.1021/je700670k)

Details: Liquid, Vibrating tube method

CCn1cc[n+](C)c1.O=S(=O)([O-])C(F)(F)F [1-ethyl-3-methylimidazolium trifluoromethanesulfonate]
mass density [kg/m3]
Details	293.15 K	303.15 K	313.15 K	323.15 K	333.15 K	353.15 K	393.15 K
100 kPa	1379.6	1370.2	1361.1	1352	1342.8	1325.3	1291.1
1000 kPa	1380	1370.7	1361.6	1352.5	1343.3	1325.9	1291.7
2000 kPa	1380.6	1371.5	1362.2	1353.2	1344	1326.6	1292.4
3000 kPa	1381.1	1372.1	1362.9	1353.8	1344.6	1327.2	1293.2
4000 kPa	1381.8	1372.7	1363.5	1354.4	1345.3	1327.9	1293.9
5000 kPa	1382.5	1373.2	1364.1	1355.1	1346	1328.6	1294.5
7500 kPa	1383.9	1374.6	1365.7	1356.7	1347.6	1330.3	1296.4
10000 kPa	1385.4	1376.1	1367.3	1358.2	1349.2	1332	1298.1
15000 kPa	1388.2	1379	1370.2	1361.2	1352.3	1335.3	1302
20000 kPa	1391	1381.9	1373.1	1364.2	1355.4	1338.5	1305.2
25000 kPa	1393.7	1384.7	1376	1367.2	1358.4	1341.9	1308.7
30000 kPa	1396.4	1387.5	1378.8	1370.1	1361.4	1344.8	1312
35000 kPa	1399.1	1390.2	1381.6	1372.9	1364.3	1347.8	1315.3

CCCC[N+]1(C)CCCC1.O=S(=O)([N-]S(=O)(=O)C(F)(F)F)C(F)(F)F
mass density [kg/m3]
Details	293.15 K	303.15 K	313.15 K	323.15 K	333.15 K	353.15 K	393.15 K
100 kPa	1409.1	1399.3	1389.5	1379.8	1370.2	1351.5	1315.2
1000 kPa	1409.7	1399.9	1390.1	1380.4	1370.9	1352.3	1316.1
2000 kPa	1410.5	1400.7	1390.9	1381.2	1371.7	1353.2	1317.1
3000 kPa	1411.2	1401.4	1391.7	1382	1372.5	1354.1	1318.1
4000 kPa	1411.9	1402.2	1392.5	1382.8	1373.4	1354.9	1319.1
5000 kPa	1412.6	1402.9	1393.3	1383.6	1374.2	1355.8	1320
7500 kPa	1414.4	1404.8	1395.2	1385.6	1376.1	1357.9	1322.5
10000 kPa	1416.1	1406.6	1397	1387.5	1378.1	1360	1324.8
15000 kPa	1419.6	1410.1	1400.7	1391.3	1382	1364.1	1329.5
20000 kPa	1423	1413.6	1404.3	1394.9	1385.8	1368.1	1333.7
25000 kPa	1426.3	1417	1407.7	1398.5	1389.5	1371.9	1338
30000 kPa	1429.6	1420.3	1411.1	1402	1393.1	1375.7	1342.2
35000 kPa	1432.8	1423.6	1414.4	1405.4	1396.6	1379.4	1346.2

CCC[N+]1(C)CCCC1.O=S(=O)([N-]S(=O)(=O)C(F)(F)F)C(F)(F)F
mass density [kg/m3]
Details	293.15 K	303.15 K	313.15 K	323.15 K	333.15 K	353.15 K	393.15 K
100 kPa	1438.6	1428.6	1418.6	1408.7	1399	1380	1343.2
1000 kPa	1439.3	1429.3	1419.3	1409.4	1399.7	1380.8	1344
2000 kPa	1440	1430	1420.1	1410.1	1400.5	1381.7	1344.9
3000 kPa	1440.7	1430.8	1420.9	1411	1401.4	1382.5	1345.8
4000 kPa	1441.4	1431.6	1421.7	1411.8	1402.2	1383.4	1346.8
5000 kPa	1442.1	1432.2	1422.5	1412.6	1403	1384.3	1347.8
7500 kPa	1444	1434.1	1424.3	1414.4	1405	1386.4	1350.2
10000 kPa	1445.8	1435.9	1426.3	1416.3	1407	1388.5	1352.5
15000 kPa	1449.2	1439.4	1429.9	1420.1	1410.8	1392.6	1357.1
20000 kPa	1452.6	1443	1433.4	1423.8	1414.6	1396.6	1361.5
25000 kPa	1456	1446.4	1436.9	1427.4	1418.3	1400.4	1365.8
30000 kPa	1459.2	1449.7	1440.3	1431	1421.9	1404.2	1370
35000 kPa	1462.3	1453	1443.6	1434.4	1425.4	1407.9	1374

CCC[N+]1(C)CCCCC1.O=S(=O)([N-]S(=O)(=O)C(F)(F)F)C(F)(F)F
mass density [kg/m3]
Details	293.15 K	303.15 K	313.15 K	323.15 K	333.15 K	353.15 K	393.15 K
100 kPa	1416.9	1407.2	1397.4	1387.6	1377	1358.5	1322.3
1000 kPa	1417.6	1407.8	1398.1	1388.3	1377.8	1359.3	1323.2
2000 kPa	1418.3	1408.6	1398.9	1389.1	1378.6	1360.2	1324.3
3000 kPa	1419	1409.3	1399.5	1389.9	1379.3	1361.1	1325.3
4000 kPa	1419.6	1410	1400.2	1390.6	1380.1	1361.9	1326.2
5000 kPa	1420.3	1410.7	1401	1391.4	1380.9	1362.8	1327.3
7500 kPa	1422	1412.5	1402.8	1393.2	1382.8	1364.7	1329.7
10000 kPa	1423.8	1414.3	1404.7	1395.1	1384.8	1366.7	1331.8
15000 kPa	1427.1	1417.7	1408.2	1398.7	1388.5	1370.7	1336.3
20000 kPa	1430.4	1421.1	1411.7	1401.9	1392.3	1374.7	1340.7
25000 kPa	1433.7	1424.4	1415.1	1405	1396	1378.4	1344.8
30000 kPa	1436.8	1427.6	1418.4	1408.6	1399.5	1382.1	1348.9
35000 kPa	1439.9	1430.7	1421.7	1412.1	1403	1385.7	1353

CCC[n+]1cccc(C)c1.O=S(=O)([N-]S(=O)(=O)C(F)(F)F)C(F)(F)F
mass density [kg/m3]
Details	293.15 K	303.15 K	313.15 K	323.15 K	333.15 K	353.15 K	393.15 K
100 kPa	1454.9	1444.4	1433.9	1423.7	1413.6	1393.7	1354.8
1000 kPa	1455.6	1445.3	1434.8	1424.5	1414.4	1394.6	1355.8
2000 kPa	1456.4	1446.1	1435.6	1425.3	1415.3	1395.5	1356.9
3000 kPa	1457.1	1446.8	1436.4	1426.1	1416.1	1396.4	1357.9
4000 kPa	1457.9	1447.6	1437.3	1427	1417	1397.4	1359
5000 kPa	1458.7	1448.4	1438	1427.8	1417.8	1398	1360
7500 kPa	1460.5	1450.3	1440	1429.9	1419.8	1400.2	1362.5
10000 kPa	1462.4	1452.2	1441.9	1431.9	1421.9	1402.5	1365
15000 kPa	1466.1	1455.9	1445.7	1435.7	1425.9	1406.8	1369.7
20000 kPa	1469.6	1459.6	1449.5	1439.5	1429.9	1411	1374.3
25000 kPa	1473.1	1463.1	1453.1	1443.3	1433.7	1415.1	1378.8
30000 kPa	1476.5	1466.6	1456.7	1446.9	1437.4	1419	1383.2
35000 kPa	1479.8	1470	1460.3	1450.5	1441.1	1422.9	1387.5
